Results published in patent US20030064380A1, “Anergy-regulated molecules” (The Center For Blood Research, Inc., priority 2001, published 2003).

Test system: D5 Th1 T cell line
Assay: nucleic acid expression profile of D5 Th1 T cell line stimulated with 500 nM ionomycin, 1 μM CsA plus ionomycin or 20 nM PMA plus ionomycin; 19K chip, second replicate
Assay type: cell-based, murine
Design: expression level of Msa.15983.0_f_at / expression level of Msa.1669.0_f_at / expression level of Msa.18713.0_g_at / expression level of D86609_s_at / expression level of TC19211_at / expression level of TC21156_at / expression level of TC24045_at / expression level of TC30384_g_at / expression level of TC3225_at / expression level of TC38978_at / expression level of TC39080_at / expression level of TC17495_at: unit not given here
Protocol: D5 or primary T cells from NFAT1−/− or wild type DO11.10 transgenic mice were stimulated for 2, 6 or 16 hours with 500 nM ionomycin, 20 nM PMA plus 500 nM ionomycin, or 1 μM CsA plus 500 nM ionomycin. Total RNA was isolated with an RNeasy kit (QIAGEN). Ten μg of total RNA was quantitatively amplified and biotin-labeled as described (Byrne et al., (2000) “Preparation of mRNA for Expression Monitoring” Current Protocols in Molecular Biology (John Wiley & Sons, Inc.) pp. 22.22.21-22.22.13). […] Chips were washed, stained with SA-PE and read using an Affymetrix GeneChip® scanner and accompanying gene expression software. Labeled bacterial RNAs of known concentration were spiked into each chip hybridization mix to generate an internal standard curve, allowing normalization between chips and conversion of raw hybridization intensity values to mRNA frequency (mRNA molecules per million).
Nucleic acid expression profiles were obtained from a T cell line at multiple time points and in various T cell states. The D5 Th1 T cell line was stimulated in three different ways: 1) ionomycin alone (e.g., causing the regulatory factor NFAT to move from the cytoplasm to the nucleus); 2) ionomycin+PMA (e.g., causing both NFAT and the transcription factor AP-1 to enter the nucleus); 3) ionomycin +cyclosporin A (CsA) (e.g., preventing NFAT from entering the nucleus in response to ionomycin). […] Cells were stimulated for 0, 2, 6, and 16 hours. […] The experiment was done twice (i.e., with two replicates, Rep. 1 and Rep. 2). Nucleic acid expression at the 2, 6 and 16 hour timepoints was compared to nucleic acid expression at 0 hours.
The nucleic acid expression data was stored in a computer database. A database query was used to identify all nucleic acids that were deemed “increasing” or “decreasing” in response to ionomycin (relative to the 0 hour sample) in at least one timepoint in Rep. 1, and the nucleic acids were also deemed “increasing” or “decreasing” in response to ionomycin in Rep. 2.
To test the hypothesis that NFAT in the absence of AP-1 and NFKB induced a genetic program of anergy, genes induced in D5 T cells by ionomycin stimulation alone were evaluated (FIGS. 1, 2 and 6). Samples from D5 cells stimulated with ionomycin plus CsA, which blocks anergy induction, and ionomycin plus PMA, which pharmacologically mimic complete stimulation through the TCR and CD28 were included. RNA was prepared from unstimulated D5 T cells and from cells stimulated for 2, 6 or 16 h under these three conditions, and gene transcription profiles were evaluated using Affymetrix oligonucleotide arrays (FIG. 6A).

## C[C@H](CCC(=O)O)C[C@H](C)C[C@H](C)C(=O)/C=C(\O)[C@H](C)C[C@H](C)C/C=C/[C@@H](C)[C@@H](O)[C@@H](C)[C@@H](O)C[C@@H]1CC[C@@](C)([C@H]2CC[C@@](C)([C@@H](C)O)O2)O1 [Ionomycin, ionomycin]
2 h
  expression level of D86609_s_at: 34
  expression level of ET63436_at: 113
  expression level of MIP1-B_at: 110.5
  expression level of Msa.11439.0_s_at: 19
  expression level of Msa.15983.0_f_at: 44
  expression level of Msa.1669.0_f_at: 27
  expression level of Msa.18713.0_g_at: 83
  expression level of Msa.21745.0_s_at: 8
  expression level of TC3225_at: 34
  expression level of TC14671_g_at: 7
  expression level of TC16364_at: 4
  expression level of TC16828_at: 4
  expression level of TC17132_at: 121
  expression level of TC17495_at: 9
  expression level of TC17558_at: 41
  expression level of TC18221_at: 9
  expression level of TC19211_at: 48
  expression level of TC21156_at: 20
  expression level of TC23346_s_at: 5
  expression level of TC23450_s_at: 16
  expression level of TC24045_at: 15
  expression level of TC24067_at: 9
  expression level of TC25965_at: 42
  expression level of TC27326_g_at: 3
  expression level of TC29889_at: 11
  expression level of TC30384_g_at: 39
  expression level of TC30935_at: 93
  expression level of TC30992_s_at: 28
  expression level of TC31681_at: 56
  expression level of TC33206_at: 45
  expression level of TC33833_at: 23
  expression level of TC34186_at: 40
  expression level of TC36089_at: 156
  expression level of TC36583_at: 29
  expression level of TC37631_at: 18
  expression level of TC38094_at: 18
  expression level of TC38978_at: 6
  expression level of TC39012_at: 64
  expression level of TC39080_at: 14
  expression level of TC39762_at: 16
  expression level of TC40487_g_at: 16
  expression level of TC41014_at: 23
  expression level of U44731_s_at: 69
  expression level of X67914_s_at: 53
  expression level of Z31202_s_at: 10
  expression level of aa144045_s_at: 24
  expression level of aa174748_at: 31
  expression level of c81206_rc_at: 15
  expression level of k00083_s_at: 41
  expression level of x12531_s_at: 68
6 h
  expression level of D86609_s_at: 34
  expression level of ET63436_at: 60
  expression level of MIP1-B_at: 85.5
  expression level of Msa.11439.0_s_at: 22
  expression level of Msa.15983.0_f_at: 60
  expression level of Msa.1669.0_f_at: 32
  expression level of Msa.18713.0_g_at: 58
  expression level of Msa.21745.0_s_at: 12
  expression level of TC3225_at: 22
  expression level of TC14671_g_at: 15
  expression level of TC16364_at: 5
  expression level of TC16828_at: 17
  expression level of TC17132_at: 155
  expression level of TC17495_at: 12
  expression level of TC17558_at: 57
  expression level of TC18221_at: 17
  expression level of TC19211_at: 22
  expression level of TC21156_at: 25
  expression level of TC23346_s_at: 12
  expression level of TC23450_s_at: 21
  expression level of TC24045_at: 15
  expression level of TC24067_at: 19
  expression level of TC25965_at: 35
  expression level of TC27326_g_at: 4
  expression level of TC29889_at: 10
  expression level of TC30384_g_at: 29
  expression level of TC30935_at: 60
  expression level of TC30992_s_at: 9
  expression level of TC31681_at: 31
  expression level of TC33206_at: 19
  expression level of TC33833_at: 23
  expression level of TC34186_at: 38
  expression level of TC36089_at: 149
  expression level of TC36583_at: 26
  expression level of TC37631_at: 12
  expression level of TC38094_at: 10
  expression level of TC38978_at: 3
  expression level of TC39012_at: 42
  expression level of TC39080_at: 11
  expression level of TC39762_at: 15
  expression level of TC40487_g_at: 8
  expression level of TC41014_at: 18
  expression level of U44731_s_at: 54
  expression level of X67914_s_at: 39
  expression level of Z31202_s_at: 17
  expression level of aa144045_s_at: 17
  expression level of aa174748_at: 19
  expression level of c81206_rc_at: 13
  expression level of k00083_s_at: 45
  expression level of x12531_s_at: 49
16 h
  expression level of D86609_s_at: 45
  expression level of ET63436_at: 107
  expression level of MIP1-B_at: 97.5
  expression level of Msa.11439.0_s_at: 36
  expression level of Msa.15983.0_f_at: 56
  expression level of Msa.1669.0_f_at: 50
  expression level of Msa.18713.0_g_at: 49
  expression level of Msa.21745.0_s_at: 12
  expression level of TC3225_at: 37
  expression level of TC14671_g_at: 30
  expression level of TC16364_at: 10
  expression level of TC16828_at: 31
  expression level of TC17132_at: 126
  expression level of TC17495_at: 12
  expression level of TC17558_at: 98
  expression level of TC18221_at: 25
  expression level of TC19211_at: 22
  expression level of TC21156_at: 31
  expression level of TC23346_s_at: 13
  expression level of TC23450_s_at: 22
  expression level of TC24045_at: 25
  expression level of TC24067_at: 31
  expression level of TC25965_at: 50
  expression level of TC27326_g_at: 5
  expression level of TC29889_at: 13
  expression level of TC30384_g_at: 53
  expression level of TC30935_at: 86
  expression level of TC30992_s_at: 12
  expression level of TC31681_at: 22
  expression level of TC33206_at: 12
  expression level of TC33833_at: 23
  expression level of TC34186_at: 50
  expression level of TC36089_at: 165
  expression level of TC36583_at: 31
  expression level of TC37631_at: 29
  expression level of TC38094_at: 16
  expression level of TC38978_at: 8
  expression level of TC39012_at: 77
  expression level of TC39080_at: 24
  expression level of TC39762_at: 37
  expression level of TC40487_g_at: 13
  expression level of TC41014_at: 33
  expression level of U44731_s_at: 25
  expression level of X67914_s_at: 36
  expression level of Z31202_s_at: 45
  expression level of aa144045_s_at: 22
  expression level of aa174748_at: 21
  expression level of c81206_rc_at: 39
  expression level of k00083_s_at: 72
  expression level of x12531_s_at: 84
